{"source": "a melting point compilation (Tetko et al.; mined from patent text by program, amines drawn as free bases though some values may be those of a salt)"}
{"units": {"melting point": "°C"}}
{"compound": "O=S(=O)(NC1CCCCC1)c1ccc(Nc2nccc(N3CCCc4c(O)cccc43)n2)cc1", "melting point": "236 to 238"}
{"compound": "CCOC(=O)C(C#N)(CCN1CCOCC1)c1ccc(C(F)(F)F)cc1", "note": "(stereo unspecified)", "melting point": "96 to 97"}
{"compound": "COC(=O)[C@@H]1CCC(c2cccc(O)c2)N1C(=O)CNC(=O)OCc1ccccc1", "note": "(stereo partly specified)", "melting point": 173}
{"compound": "COc1ccc(-c2ccccc2NC(=N)N(C)C)cc1", "melting point": "130 to 131"}
{"compound": "CC(=O)N1CCN(c2ccc(Nc3nccc(-c4sc(-c5cccs5)nc4C)n3)cc2)CC1", "melting point": "134 to 136"}
{"compound": "c1ccc(CN2CC3OC(c4ccccc4)(C2)c2ccccc23)cc1", "note": "(stereo unspecified)", "melting point": "100 to 101"}
{"compound": "CC(CC=CC=CCC(=O)O)C1CCC2C3CCC4CC(O)CCC4(C)C3CC(O)C12C", "note": "(stereo unspecified)", "melting point": "208 to 211"}
{"compound": "CS(=O)(=O)c1ccccc1S", "melting point": 57}
{"compound": "CCOC(=O)c1cnn(-c2ccc(F)cc2)c1Cl", "melting point": "70 to 72"}
{"compound": "Cc1cc(-c2nc3ccccc3c(=O)n2-c2ccc(C(F)(F)F)cc2)cc(C)c1OCCO", "melting point": "160 to 161"}
{"compound": "O=C(Nc1ccc2oc3c(c2c1)CCCC3)c1ccccc1", "melting point": "178 to 180"}
{"compound": "CC(=O)N1CCN=C1Nc1cc(C)nn1-c1ccccc1C", "melting point": "160 to 161"}
{"compound": "O=Cc1cccc(-c2cnco2)n1", "melting point": 151}
{"compound": "Cn1c(CCNC2CCN(Cc3ccccc3)CC2)cc2ccccc21", "melting point": "72 to 73"}
{"compound": "COC(=O)[C@H](Cc1ccc(NC(=S)NCCc2ccccc2)cc1)NC(=O)[C@@H]1CCCN1S(=O)(=O)c1ccc(C)cc1", "melting point": "76 to 81"}
{"compound": "COc1ccc(N2CCN(CCN3CCC(c4noc5cc(F)ccc45)CC3)C2=O)cc1", "melting point": "154 to 157"}
{"compound": "CC(=O)N[C@@H](C)COc1ccc(-c2nc3ccc(OCC4CC4)cc3o2)nc1", "melting point": "179 to 180"}
{"compound": "O=C(CCCC12CCC(=O)N1C(=O)CC2)OCc1ccccc1", "melting point": "102 to 105"}
{"compound": "CCOc1ncc(SC)cc1C(=O)O", "melting point": "78 to 92"}
{"compound": "O=C(O)CN1C(=O)C(c2ccccc2)SC1=S", "note": "(stereo unspecified)", "melting point": "158 to 159"}
{"compound": "CCN(CC)C(=O)c1c(C(C)C)cc(OC)cc1S(N)(=O)=O", "melting point": "122 to 125"}
{"compound": "COC(=O)[C@H]1NC(=O)[C@H]1NC(=O)Cc1csc(NC(=O)CCl)n1", "note": "(relative stereo)", "melting point": "120 to 122"}
{"compound": "C[C@@H]1N(c2ccc(C#N)c(Cl)c2)C(=O)C[C@@]1(O)C1CC1", "melting point": "93 to 100"}
{"compound": "COc1ccc(NC(=O)C(C)(C)CCCOc2cc(C)ccc2C)cc1OC", "melting point": "110 to 111"}
{"compound": "O=C(O)c1cc(-n2c(-c3ccccc3)cc3ccccc32)ccc1O", "melting point": "210 to 212"}
{"compound": "C=CC(=O)NCc1cc([N+](=O)[O-])ccc1C", "melting point": "155 to 158"}
{"compound": "CC1=CC(C)(C)OC1=O", "melting point": "54 to 55"}
{"compound": "COc1cc(OC(C)(C)C(=O)O)c(-c2cccs2)cc1C=CC(=O)c1ccc(C(=O)O)cc1", "melting point": "135 to 137"}
{"compound": "N/C(=C1/Sc2ccccc2C1=O)c1ccccc1", "melting point": "121 to 122"}
{"compound": "NNC(=O)c1ncnc2[nH]ccc12", "melting point": "252 to 254"}
{"compound": "C/C(=C\\c1ccc(C(=O)O)cc1)c1ccc2c(c1)C(C)(C)CCO2", "melting point": "179 to 181"}
{"compound": "CCCCNC(=O)Nc1ccccc1C(=O)NC1CCN(C(c2ccccc2)c2ccccc2)CC1", "melting point": "204 to 206"}
{"compound": "CC(C)N(CCOc1ccc2oc3ccc(OCCN(C(C)C)C(C)C)cc3c2c1)C(C)C", "melting point": "47 to 49"}
{"compound": "O=[N+]([O-])C=C1NCCN1Cc1ccno1", "melting point": "156 to 158"}
{"compound": "CCOC(=O)c1c(C)nc2cc(C)ccn12", "melting point": "59 to 61"}
{"compound": "CC(=O)NC(C)C(=O)Nc1ccc2[nH]cc(C(=O)O)c(=O)c2c1", "note": "(stereo unspecified)", "melting point": "196 to 200"}
{"compound": "Cc1cc(OCc2nc3ccccc3s2)ccc1[N+](=O)[O-]", "melting point": "145 to 147"}
{"compound": "Clc1ccccc1-c1n[nH]c(SCc2ccccc2)n1", "melting point": "84 to 86"}
{"compound": "COc1cc(CCCC2SC(=O)NC2=O)ccc1OCc1nc(-c2ccco2)oc1C", "note": "(stereo unspecified)", "melting point": "109 to 110"}
{"compound": "CC(C)(C)C(=O)Nc1ncc(Cl)cc1C=O", "melting point": "169 to 171"}
{"compound": "Cn1c(N2CC3CC2CN3C(=O)c2ccccc2)nc(-c2ccncn2)cc1=O", "note": "(stereo unspecified)", "melting point": "133 to 135"}
